What was measured:
Assay in all cases: 3-PGA oxidation, NADH absorbance at […] nm; Hill fit
AtPGDH-N2/C1 = tested on: T1, AtPGDH-N2/C1; format: biochemical, Arabidopsis thaliana; conditions: cooperative, 10 mM 3-PGA, 1 mM NAD+, 0.1 M NaCl, pH 9.0, 25 °C
T1 construct: gene PGDH2; one fused polypeptide: N-terminal half (catalytic domain) of AtPGDH2 + C-terminal half (ASB and ACT domains) of AtPGDH1; tag-free, E. coli; homotetramer

AtPGDH3 = target: T2, AtPGDH3 (Arabidopsis thaliana, UniProt Q9LT69); format: biochemical
T2 construct: gene PGDH3; mature enzyme, predicted chloroplast transit peptide removed; eXact tag cleaved (tag-free); E. coli BL21 CodonPlus(DE3)-RIL; homotetramer
T2 sequence (Q9LT69 44-588 limits assumed): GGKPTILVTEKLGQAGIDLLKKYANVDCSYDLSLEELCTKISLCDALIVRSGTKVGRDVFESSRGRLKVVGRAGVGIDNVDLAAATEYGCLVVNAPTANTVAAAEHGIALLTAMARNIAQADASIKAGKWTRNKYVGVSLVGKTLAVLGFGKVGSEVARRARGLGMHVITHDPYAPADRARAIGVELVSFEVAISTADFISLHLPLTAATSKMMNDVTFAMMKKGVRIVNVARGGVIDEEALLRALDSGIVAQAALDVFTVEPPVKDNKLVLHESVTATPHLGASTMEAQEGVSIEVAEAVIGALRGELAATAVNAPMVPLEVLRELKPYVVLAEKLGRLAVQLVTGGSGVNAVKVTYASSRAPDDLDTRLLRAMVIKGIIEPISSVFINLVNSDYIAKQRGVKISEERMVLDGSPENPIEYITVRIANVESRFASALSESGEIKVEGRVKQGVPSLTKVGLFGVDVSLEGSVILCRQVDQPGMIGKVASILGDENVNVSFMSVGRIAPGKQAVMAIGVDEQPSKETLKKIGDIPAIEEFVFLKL

AtPGDH-N1/C2 = tested on: T3, AtPGDH-N1/C2; format: biochemical, Arabidopsis thaliana; conditions: activator, cooperative; 10 mM 3-PGA, 1 mM NAD+, 0.1 M NaCl, pH 9.0, 25 °C
T3 construct: gene PGDH1; one fused polypeptide: N-terminal half (catalytic domain) of AtPGDH1 + C-terminal half (ASB and ACT domains) of AtPGDH2; tag-free, E. coli; mainly homotetramer, also multimers up to 20 subunits

AtPGDH1 = target: T4, AtPGDH1 (Arabidopsis thaliana, UniProt O49485); format: biochemical
T4 construct: gene PGDH1; mature enzyme, predicted chloroplast transit peptide removed; eXact tag cleaved (tag-free); E. coli BL21 CodonPlus(DE3)-RIL; homotetramer
T4 sequence (O49485 59-603 limits assumed): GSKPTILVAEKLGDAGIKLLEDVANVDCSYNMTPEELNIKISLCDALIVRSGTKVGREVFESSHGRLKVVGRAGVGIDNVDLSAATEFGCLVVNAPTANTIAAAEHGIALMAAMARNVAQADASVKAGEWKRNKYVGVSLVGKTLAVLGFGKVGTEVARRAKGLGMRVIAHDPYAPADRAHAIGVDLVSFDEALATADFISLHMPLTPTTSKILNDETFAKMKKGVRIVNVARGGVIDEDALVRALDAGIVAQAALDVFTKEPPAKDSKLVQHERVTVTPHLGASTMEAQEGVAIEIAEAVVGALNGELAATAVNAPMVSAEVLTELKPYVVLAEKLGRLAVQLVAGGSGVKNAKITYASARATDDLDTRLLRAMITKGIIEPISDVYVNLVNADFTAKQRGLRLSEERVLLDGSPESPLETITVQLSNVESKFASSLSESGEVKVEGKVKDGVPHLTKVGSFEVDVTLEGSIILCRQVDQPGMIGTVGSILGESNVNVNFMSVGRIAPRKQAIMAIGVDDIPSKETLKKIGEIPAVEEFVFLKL

Row | Compound | EC50 (AtPGDH-N2/C1; activator) [mM] | EC50 (AtPGDH3) [mM] | EC50 (AtPGDH-N1/C2) [mM] | EC50 (AtPGDH1) [mM] | EC50 (AtPGDH-N2/C1; inhibitor) [mM]
1 | C[C@H](N)C(=O)O [L-alanine] | 2.6 ± 0.1 | 4.9 ± 0.2 | 3.7 ± 0.1 | 5.3 ± 0.2 | 
2 | N[C@@H](CCS)C(=O)O [L-homocysteine] |  | 0.069 |  | 0.023 | 
3 | N[C@@H](CCO)C(=O)O [L-homoserine] |  | 9.2 ± 0.3 |  | 3 ± 0.3 | 
4 | CSCC[C@H](N)C(=O)O [L-methionine] |  | 2.5 ± 0.1 |  | 0.67 | 
5 | N[C@@H](CO)C(=O)O [L-serine] |  | 1.3 |  | 6.6 | 2.7 ± 0.1
6 | CC(C)[C@H](N)C(=O)O [L-valine] |  | 2.3 ± 0.2 |  | 7.1 ± 0.2 | 
